Source: patent publication US20240393292A1, “ALLERGY ANTIGEN AND EPITOPE THEREOF” (HOYU CO., LTD., priority 2019, published 2024)

System: IgE antibodies from patients
Assay: Wheat epitope mapping (2): overlapping 10-amino-acid peptide fragments shifted by one amino acid;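 for Rank of partial sequence as epitope binding to IgE antibody: key = sequence deemed particularly important within the common 15-residue sequence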;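 for epitope sequence binding to IgE antibody, rank (Key/Preferably/More preferably): key of grades: preferably = shorter partial sequence still acting as epitope; more preferably = sequence improving IgE binding; key = particularly important sequence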
Type: binding, human
Outline: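 Residual binding was banded as <30% none, 30–<50% poor, 50–<70% somewhat poor and ≥70% retained, relative to the parent overlapping sequence set to 100%. Values were chemiluminescent IgE signals from patient sera after subtracting secondary-antibody-only controls. The peptides were spot-synthesised 10-mers shifted by one amino acid.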

[1] = serum of patient P31 (WDEIA), partial sequence
[2] = serum of patient P22 (WDEIA), partial sequence
[3] = serum of patient P8 (WDEIA), sequence without X
[4] = serum of patient P34 (WDEIA), sequence without X
[5] = serum of patient P35 (WDEIA), sequence without X
[6] = serum of patient G7 (adult, general immediate type allergy to wheat), sequence without X
[7] = serum of patient P21 (WDEIA), sequence without X
[8] = serum of patient P14 (WDEIA), partial sequence
[9] = serum of patient P12 (WDEIA), sequence without X
[10] = serum of patient P10 (WDEIA), sequence without X
[11] = serum of patient P14 (WDEIA), sequence without X

“2602 (QQSTYQLV; REGION 1..8: note = epitope) [compound 2602]” was tested, and the “Epitope sequence binding to IgE antibody, rank of the sequence” value (serum of patient P54 (child, general immediate type allergy to wheat), partial sequence) was “Key”.
With “2314 (SRYDAIR; REGION 1..7: note = epitope) [compound 2314]” the “Epitope sequence binding to IgE antibody, rank of the sequence (Key/Preferably/More preferably)” value (serum of patient P25 (WDEIA), sequence without X) was “Key”.
“2653 (EAAE; REGION 1..4: note = epitope) [compound 2653]” was tested, and the “Epitope sequence binding to IgE antibody, rank of the sequence” value [1] was “Key”.
With “2508 (SQVSF; REGION 1..5: note = epitope) [compound 2508]” the “Epitope sequence binding to IgE antibody, rank of the sequence” value [2] was “Key”.
In the case of “1177 (QQFPPQ; REGION 1..6: note = epitope) [compound 1177]”, the “Epitope sequence binding to IgE antibody, rank of the sequence” value [3] is reported as “Key”.
With “2327 (RYDAIRAII; REGION 1..9: note = epitope) [compound 2327]” the “Epitope sequence binding to IgE antibody, rank of the sequence (Key/Preferably/More preferably)” value [4] was “Key”.
For “1804 (KFLKN; REGION 1..5: note = epitope) [compound 1804]”, the “epitope sequence binding to IgE antibody, rank (Key/Preferably/More preferably)” value (serum of patient P18 (WDEIA)) was “Key”.
With “2583 (QLVQQ; REGION 1..5: note = epitope) [compound 2583]” the “Epitope sequence binding to IgE antibody, rank of the sequence” value [1] was “Preferably”.
“1641 (YNPDKVP; REGION 1..7: note = epitope) [compound 1641]” was tested, and the “Rank of partial sequence as epitope binding to IgE antibody” value (“Rank of partial sequence” for short) [5] was “Preferably”.
“2307 (RVIERFEK; REGION 1..8: note = epitope) [compound 2307]” was tested, and the “Epitope sequence binding to IgE antibody, rank of the sequence (Key/Preferably/More preferably)” value (serum of patient G9 (adult, general immediate type allergy to wheat), sequence without X) was “Preferably”.
For “2740 (KIGGI; REGION 1..5: note = epitope) [compound 2740]”, the “Epitope sequence binding to IgE antibody, rank of the sequence” value [1] was “Key”.
In the case of “1366 (INVEN; REGION 1..5: note = epitope) [compound 1366]”, the “Epitope sequence binding to IgE antibody, rank of the sequence” value [6] is reported as “Key”.
For “2693 (YKGPTL; REGION 1..6: note = epitope) [compound 2693]”, the “Epitope sequence binding to IgE antibody, rank of the sequence” value (serum of patient P34 (WDEIA), partial sequence) was “Key”.
For “2696 (YKGPTL; REGION 1..6: note = epitope) [compound 2696]”, the “Epitope sequence binding to IgE antibody, rank of the sequence” value (serum of patient G3 (adult, general immediate type allergy to wheat), partial sequence) was “Key”.
With “1189 (QQFPPQ; REGION 1..6: note = epitope) [compound 1189]” the “Epitope sequence binding to IgE antibody, rank of the sequence” value [7] was “Key”.
“2679 (YKGPTL; REGION 1..6: note = epitope) [compound 2679]” was tested, and the “Epitope sequence binding to IgE antibody, rank of the sequence” value [8] was “Key”.
In the case of “2303 (LGGIDK; REGION 1..6: note = epitope) [compound 2303]”, the “Epitope sequence binding to IgE antibody, rank of the sequence (Key/Preferably/More preferably)” value [6] is reported as “Key”.
With “2584 (QLVQ; REGION 1..4: note = epitope) [compound 2584]” the “Epitope sequence binding to IgE antibody, rank of the sequence” value [1] was “Key”.
“2221 (IRNYR; REGION 1..5: note = epitope) [compound 2221]” was tested, and the “Epitope sequence binding to IgE antibody, rank of the sequence (Key/Preferably/More preferably)” value (serum of patient P7 (WDEIA), sequence without X) was “Key”.
With “2641 (KEAAEM; REGION 1..6: note = epitope) [compound 2641]” the “Epitope sequence binding to IgE antibody, rank of the sequence” value [8] was “Key”.
In the case of “1245 (PQQPPC; REGION 1..6: note = epitope) [compound 1245]”, the “Epitope sequence binding to IgE antibody, rank of the sequence” value (serum of patient P31 (WDEIA), sequence without X) is reported as “Preferably”.
“1478 (YLQPQQPIS; REGION 1..9: note = epitope) [compound 1478]” was tested, and the “Rank of partial sequence” value (serum of patient P32 (WDEIA), sequence without X) was “Key”.
With “2398 (TEIVL; REGION 1..5: note = epitope) [compound 2398]” the “Epitope sequence binding to IgE antibody, rank of the sequence (Key/Preferably/More preferably)” value [5] was “Preferably”.
With “1226 (PIQQQP; REGION 1..6: note = epitope) [compound 1226]” the “Epitope sequence binding to IgE antibody, rank of the sequence” value [9] was “Key”.
“1910 (QFPGQQQ; REGION 1..7: note = epitope) [compound 1910]” was tested, and the “epitope sequence binding to IgE antibody, rank (Key/Preferably/More preferably)” value (serum of patient P7 (WDEIA)) was “Key”.
For “1424 (SQQQA; REGION 1..5: note = epitope) [compound 1424]”, the “Epitope sequence binding to IgE antibody, rank of the sequence” value [10] was “Key”.
With “2640 (RFEKEAAEMN; REGION 1..10: note = epitope) [compound 2640]” the “Epitope sequence binding to IgE antibody, rank of the sequence” value [8] was “Preferably”.
With “2697 (YKGPTL; REGION 1..6: note = epitope) [compound 2697]” the “Epitope sequence binding to IgE antibody, rank of the sequence” value (serum of patient G6 (adult, general immediate type allergy to wheat), partial sequence) was “Key”.
For “2255 (LLRGIRNYRV; REGION 1..10: note = epitope) [compound 2255]”, the “Epitope sequence binding to IgE antibody, rank of the sequence (Key/Preferably/More preferably)” value (serum of patient P53 (child, general immediate type allergy to wheat), sequence without X) was “Preferably”.
For “1751 (SQVIIM; REGION 1..6: note = epitope) [compound 1751]”, the “epitope sequence binding to IgE antibody, rank (Key/Preferably/More preferably)” value (serum of patient G7 (adult, general immediate type allergy to wheat)) was “Key”.
For “2642 (KEAAEM; REGION 1..6: note = epitope) [compound 2642]”, the “Epitope sequence binding to IgE antibody, rank of the sequence” value (serum of patient P16 (WDEIA), partial sequence) was “Key”.
With “2561 (LVQQL; REGION 1..5: note = epitope) [compound 2561]” the “Epitope sequence binding to IgE antibody, rank of the sequence” value [2] was “Key”.
For “2565 (QSTYQLVQ; REGION 1..8: note = epitope) [compound 2565]”, the “Epitope sequence binding to IgE antibody, rank of the sequence” value (serum of patient P25 (WDEIA), partial sequence) was “Key”.
With “2224 (IRNYRVA; REGION 1..7: note = epitope) [compound 2224]” the “Epitope sequence binding to IgE antibody, rank of the sequence (Key/Preferably/More preferably)” value (serum of patient P16 (WDEIA), sequence without X) was “Key”.
With “1534 (QQQQFLG; REGION 1..7: note = epitope) [compound 1534]” the “Rank of partial sequence” value [11] was “Preferably”.
“1905 (VPLVQ; REGION 1..5: note = epitope) [compound 1905]” was tested, and the “epitope sequence binding to IgE antibody, rank (Key/Preferably/More preferably)” value (serum of patient P4 (WDEIA)) was “Key”.
In the case of “1223 (IQQQP; REGION 1..5: note = epitope) [compound 1223]”, the “Epitope sequence binding to IgE antibody, rank of the sequence” value [10] is reported as “Key”.
For “1945 (FPGQQ; REGION 1..5: note = epitope) [compound 1945]”, the “epitope sequence binding to IgE antibody, rank (Key/Preferably/More preferably)” value (serum of patient P22 (WDEIA)) was “Preferably”.
In the case of “1547 (QVPLVQQQQ; REGION 1..9: note = epitope) [compound 1547]”, the “Rank of partial sequence” value [4] is reported as “More preferably”.
“2273 (GIDKRV; REGION 1..6: note = epitope) [compound 2273]” was tested, and the “Epitope sequence binding to IgE antibody, rank of the sequence (Key/Preferably/More preferably)” value [3] was “Key”.
For “1316 (VEDNRRALR; REGION 1..9: note = epitope) [compound 1316]”, the “Epitope sequence binding to IgE antibody, rank of the sequence” value [11] was “Key”.
For “2424 (AWSGK; REGION 1..5: note = epitope) [compound 2424]”, the “Epitope sequence binding to IgE antibody, rank of the sequence (Key/Preferably/More preferably)” value [9] was “Preferably”.
In the case of “1727 (KEAANF; REGION 1..6: note = epitope) [compound 1727]”, the “epitope sequence binding to IgE antibody, rank (Key/Preferably/More preferably)” value (serum of patient P51 (child, general immediate type allergy to wheat)) is reported as “Key”.
With “1208 (QQFPPQQ; REGION 1..7: note = epitope) [compound 1208]” the “Epitope sequence binding to IgE antibody, rank of the sequence” value [5] was “Key”.
With “2261 (LLRGIRNYRV; REGION 1..10: note = epitope) [compound 2261]” the “Epitope sequence binding to IgE antibody, rank of the sequence (Key/Preferably/More preferably)” value (serum of patient G1 (adult, general immediate type allergy to wheat), sequence without X) was “Key”.
With “1768 (VSSYLKK; REGION 1..7: note = epitope) [compound 1768]” the “epitope sequence binding to IgE antibody, rank (Key/Preferably/More preferably)” value (serum of patient P35 (WDEIA)) was “Key”.
“1542 (QVPLVQQQQ; REGION 1..9: note = epitope) [compound 1542]” was tested, and the “Rank of partial sequence” value [7] was “More preferably”.
In the case of “1548 (QVPLVQQQ; REGION 1..8: note = epitope) [compound 1548]”, the “Rank of partial sequence” value [4] is reported as “Preferably”.
For “1799 (KFLK; REGION 1..4: note = epitope) [compound 1799]”, the “epitope sequence binding to IgE antibody, rank (Key/Preferably/More preferably)” value (serum of patient P15 (WDEIA)) was “Key”.
In the case of “1777 (KEVSSYLKK; REGION 1..9: note = epitope) [compound 1777]”, the “epitope sequence binding to IgE antibody, rank (Key/Preferably/More preferably)” value (serum of patient G2 (adult, general immediate type allergy to wheat)) is reported as “Key”.
“1737 (KEAANFT; REGION 1..7: note = epitope) [compound 1737]” was tested, and the “epitope sequence binding to IgE antibody, rank (Key/Preferably/More preferably)” value (serum of patient P57 (child, general immediate type allergy to wheat)) was “Preferably”.
“1762 (KEVSSYLKK; REGION 1..9: note = epitope) [compound 1762]” was tested, and the “epitope sequence binding to IgE antibody, rank (Key/Preferably/More preferably)” value (serum of patient P27 (WDEIA)) was “Key”.
In the case of “1503 (QPISQQQA; REGION 1..8: note = epitope) [compound 1503]”, the “Rank of partial sequence” value [6] is reported as “Preferably”.
“2664 (FEKEA; REGION 1..5: note = epitope) [compound 2664]” was tested, and the “Epitope sequence binding to IgE antibody, rank of the sequence” value (serum of patient P50 (child, general immediate type allergy to wheat), partial sequence) was “Key”.
“2735 (GIGTVPVGRV; REGION 1..10: note = epitope) [compound 2735]” was tested, and the “Epitope sequence binding to IgE antibody, rank of the sequence” value (serum of patient P29 (WDEIA), partial sequence) was “Key”.
In the case of “1867 (TVRTLQR; REGION 1..7: note = epitope) [compound 1867]”, the “epitope sequence binding to IgE antibody, rank (Key/Preferably/More preferably)” value (serum of patient P28 (WDEIA)) is reported as “Preferably”.
In the case of “1825 (LPKF; REGION 1..4: note = epitope) [compound 1825]”, the “epitope sequence binding to IgE antibody, rank (Key/Preferably/More preferably)” value (serum of patient P52 (child, general immediate type allergy to wheat)) is reported as “Key”.
“1769 (KVGYNP; REGION 1..6: note = epitope) [compound 1769]” was tested, and the “epitope sequence binding to IgE antibody, rank (Key/Preferably/More preferably)” value (serum of patient P35 (WDEIA)) was “Key”.
With “1838 (RTLQ; REGION 1..4: note = epitope) [compound 1838]” the “epitope sequence binding to IgE antibody, rank (Key/Preferably/More preferably)” value (serum of patient P3 (WDEIA)) was “Key”.
